In ChEMBL document CHEMBL1201862, “PubChem BioAssay data set” (2004):
Active and inactive are the calls of the source.

Key:
[1] = biological target: Latent membrane protein 1 (Human herpesvirus 4 (strain B95-8), UniProt P03230); assay: LMP1 TES1 pathway selectivity over dsRED control – imaging, HEK293T, dual-color eGFP/dsRED, cherry-picks, selectivity assay for LMP1 NF-kB inhibitor project, dose response (AID 588398); format: functional, cell-based
[2] = Luminescence Cell-Based Dose Retest to Confirm Inhibitors of Cancer Stem Cells. [Related pubchem assays (depositor defined):AID2717, AID2721]; format: functional; conditions: Homo sapiens
CHO = CHO cell viability loss, potency – luminescence, cytotoxicity control for TLR9-MyD88 binding inhibitor project, dose response (AID 588339); format: functional, cell-based, hamster; conditions: Cricetulus griseus;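 further: CHO cells stably coexpressing TLR9 and MyD88 fusions from primary screen; compound exposure lasted 48 hours before viability readout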
Beta Lactamase = Beta Lactamase (Pseudomonas aeruginosa, UniProt Q932Y6); assay: BLA reporter interference, concentration series – BLA reporter cells, FRET fluorescence, artefact control for TLR9-MyD88 binding inhibitor project, dose response (AID 588341); format: cell-based;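 further: cell based assay in CHO-K1 cells stably expressing beta-lactamase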
HEK293 [3] = assay: EBV LMP1 TES2 canonical NF-kB signalling blockers – cell-based, HEK293, luciferase, cherry-pick, dose response (AID 588343); format: functional; conditions: Homo sapiens
Protein Rev = biological target: T1, Protein Rev (Human immunodeficiency virus type 1 group M subtype B (isolate HXB2)(HIV-1), UniProt P04618); assay: blockers of HIV Rev/RRE RNA complex – biochemical, fluorescence polarization, HIV-1, dose response (AID 434976); design: species or system Human immunodeficiency virus 1
T1 sequence (P04618 whole entry): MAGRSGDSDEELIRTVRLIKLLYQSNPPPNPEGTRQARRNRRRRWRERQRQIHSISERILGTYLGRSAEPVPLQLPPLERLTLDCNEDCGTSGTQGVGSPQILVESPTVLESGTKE

[4] = biological target: T2, Female germline-specific tumor suppressor gld-1 (Caenorhabditis elegans, UniProt Q17339); assay: blockers of GLD-1/TGE RNA complex formation – biochemical, fluorescence polarization, C. elegans, dose response (AID 2802);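 further: fluorescence polarization of labeled TGE RNA bound by purified gld-1 protein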
T2 sequence (Q17339 whole entry): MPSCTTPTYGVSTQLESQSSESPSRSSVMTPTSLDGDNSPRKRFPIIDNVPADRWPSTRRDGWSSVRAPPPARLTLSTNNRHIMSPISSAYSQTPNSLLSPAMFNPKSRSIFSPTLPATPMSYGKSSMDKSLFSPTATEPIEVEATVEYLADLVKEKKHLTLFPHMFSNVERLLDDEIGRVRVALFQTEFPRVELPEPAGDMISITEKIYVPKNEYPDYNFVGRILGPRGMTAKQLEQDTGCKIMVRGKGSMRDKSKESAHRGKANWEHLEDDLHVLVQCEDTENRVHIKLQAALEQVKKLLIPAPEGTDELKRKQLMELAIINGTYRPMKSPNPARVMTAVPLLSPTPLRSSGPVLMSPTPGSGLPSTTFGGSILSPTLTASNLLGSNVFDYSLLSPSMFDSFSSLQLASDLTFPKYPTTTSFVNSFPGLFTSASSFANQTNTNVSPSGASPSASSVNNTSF

Cytochrome P450 3A4 = Cytochrome P450 3A4 (Homo sapiens, UniProt P08684);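 further: CYP3A4 tested as one member of a cytochrome P450 panel screen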
[5] = biological target: T3, RNA-binding protein pos-1 (Caenorhabditis elegans, UniProt G5EF15); assay: disruptors of C. elegans POS-1 RNA interaction – biochemical, fluorescence polarization, dose response (AID 1964);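 further: purified POS-1 fused to maltose binding protein made in E. coli; potency of compounds blocking POS-1 binding to fluorescent RNA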
T3 sequence (G5EF15 whole entry): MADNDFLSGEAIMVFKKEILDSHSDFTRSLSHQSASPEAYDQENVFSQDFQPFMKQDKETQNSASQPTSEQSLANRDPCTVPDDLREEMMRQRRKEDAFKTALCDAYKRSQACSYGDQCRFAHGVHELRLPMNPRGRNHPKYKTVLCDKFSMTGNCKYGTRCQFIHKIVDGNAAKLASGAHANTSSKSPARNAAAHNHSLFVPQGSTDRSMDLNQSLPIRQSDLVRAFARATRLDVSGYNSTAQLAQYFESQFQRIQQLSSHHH

[6] = Luminescence Cell-Based Dose Confirmation HTS to Identify Activators of 5'UTR Stem-Loop Driven Alpha-Synuclein mRNA Translation in H4 Neuroglioblastoma Cells. [Related pubchem assays: 1829 (Project Summary), 1814 (Primary HTS)]; format: functional
[7] = Luminescence Cell-Based Dose Response HTS to Identify Activators of Luciferase Translation or Activity in H4 […] Cells. [Related pubchem assays: 1829 (Project Summary), 1814 (Primary HTS)]; format: functional
H4 = assay: Luminescence Cell-Based Dose Response HTS to Identify Activators of 5'UTR Stem-Loop Driven Prion Protein mRNA Translation in H4 Neuroglioblastoma Cells. [Related pubchem assays: 1829 (Project Summary), 1814 (Primary HTS)]; format: functional; conditions: Homo sapiens
[8] = biological target: T4, Zinc finger protein mex-5 (Caenorhabditis elegans, UniProt Q9XUB2); assay: potency of MEX-5 RNA-binding blockers – biochemical, C. elegans, fluorescence polarization, dose response (AID 1960)
T4 sequence (Q9XUB2 whole entry): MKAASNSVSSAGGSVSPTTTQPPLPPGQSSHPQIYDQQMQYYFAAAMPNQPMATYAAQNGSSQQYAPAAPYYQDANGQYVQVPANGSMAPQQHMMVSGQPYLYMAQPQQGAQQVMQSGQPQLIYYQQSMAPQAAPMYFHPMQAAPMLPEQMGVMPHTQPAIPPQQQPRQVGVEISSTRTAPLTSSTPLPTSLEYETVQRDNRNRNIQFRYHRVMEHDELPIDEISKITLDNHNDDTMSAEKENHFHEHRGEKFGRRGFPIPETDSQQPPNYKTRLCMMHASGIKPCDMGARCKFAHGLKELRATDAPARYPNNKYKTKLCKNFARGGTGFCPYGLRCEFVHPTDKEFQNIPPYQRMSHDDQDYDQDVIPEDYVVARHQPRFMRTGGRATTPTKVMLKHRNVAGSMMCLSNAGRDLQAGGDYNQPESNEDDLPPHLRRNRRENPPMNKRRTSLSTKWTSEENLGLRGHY

Insulin-degrading enzyme [9] = biological target: T5, Insulin-degrading enzyme (Homo sapiens, UniProt P14735); assay: recombinant IDE activation, cell-free – biochemical, fluorescence polarization, counter-screen for IDE activator project, dose response (AID 588681)
T5 sequence (P14735 whole entry): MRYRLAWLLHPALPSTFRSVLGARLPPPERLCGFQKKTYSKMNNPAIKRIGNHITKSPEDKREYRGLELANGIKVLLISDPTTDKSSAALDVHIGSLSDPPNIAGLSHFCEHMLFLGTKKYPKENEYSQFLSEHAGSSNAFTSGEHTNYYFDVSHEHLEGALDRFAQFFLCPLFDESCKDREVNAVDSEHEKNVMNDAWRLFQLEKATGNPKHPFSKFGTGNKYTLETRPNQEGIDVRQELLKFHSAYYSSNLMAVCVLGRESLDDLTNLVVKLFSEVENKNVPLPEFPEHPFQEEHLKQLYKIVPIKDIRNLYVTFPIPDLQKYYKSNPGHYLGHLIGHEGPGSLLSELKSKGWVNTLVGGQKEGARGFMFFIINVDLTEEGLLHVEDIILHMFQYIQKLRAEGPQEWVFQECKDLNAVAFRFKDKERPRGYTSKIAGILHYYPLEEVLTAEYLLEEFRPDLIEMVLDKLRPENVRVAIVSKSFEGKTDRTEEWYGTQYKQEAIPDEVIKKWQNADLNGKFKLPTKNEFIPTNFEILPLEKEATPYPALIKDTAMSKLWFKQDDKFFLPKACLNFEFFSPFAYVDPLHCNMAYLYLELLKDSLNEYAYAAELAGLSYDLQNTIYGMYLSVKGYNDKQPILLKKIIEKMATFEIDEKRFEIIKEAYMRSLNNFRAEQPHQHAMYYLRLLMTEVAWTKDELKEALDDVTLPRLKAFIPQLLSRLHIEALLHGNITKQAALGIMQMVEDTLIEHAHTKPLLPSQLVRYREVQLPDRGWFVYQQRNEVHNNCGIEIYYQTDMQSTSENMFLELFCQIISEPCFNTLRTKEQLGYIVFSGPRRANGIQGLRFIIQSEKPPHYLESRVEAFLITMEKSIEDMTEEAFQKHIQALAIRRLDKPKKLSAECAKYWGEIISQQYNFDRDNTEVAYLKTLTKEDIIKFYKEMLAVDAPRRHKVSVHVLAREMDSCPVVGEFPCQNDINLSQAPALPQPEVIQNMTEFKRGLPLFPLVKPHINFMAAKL

Insulin-degrading enzyme [10] = biological target: T5, Insulin-degrading enzyme; assay: cellular IDE activation of Abeta substrate cleavage – fluorescence polarization, HEK cells, dose response (AID 588439); format: functional, cell-based
INS1 = assay: INS-1E survival protection against cytokine death – cell-based, luminescence, retest, dose response (AID 449756); format: functional; conditions: Rattus norvegicus;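 further: cell death triggered by IL-1 beta plus TNF-alpha plus IFN-gamma mixture; protective hits raise ATP signal compared with cytokine alone wells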
HEK293 [11] = assay: membrane integrity loss in HEK cells – cell-based, fluorescence, cytotoxicity control for IDE activator project, dose response (AID 588440); format: functional; conditions: Homo sapiens;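 further: cytotoxicity by LDH release measuring loss of membrane integrity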
HEK293 [12] = assay: optical interference in Abeta FP readout, dose response, artefact control for IDE activator project, biochemical, fluorescence polarization (AID 588442); format: functional, cell-based; conditions: Homo sapiens
[13] = biological target: Sphingosine 1-phosphate receptor 2 (Homo sapiens, UniProt O95136); assay: Dose Response Cell Based Assay for Antagonists of the S1P2 Receptor. [Related pubchem assays: 856, 736 ]; format: functional
BJ [14] = assay: BJ-TERT fibroblast viability loss – cell-based, RAS-independent, luminescence, dose response (AID 1933); format: functional; conditions: Homo sapiens
BJ [15] = assay: cells; format: functional, cell-based; conditions: Homo sapiens
BJ [16] = assay: BJ-TERT-LT-ST fibroblast viability loss – cell-based, RAS-independent, luminescence, dose response (AID 1935); format: functional; conditions: Homo sapiens;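 further: BJ fibroblasts immortalized with TERT plus LT and ST oncogenes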
[17] = DRD fibroblast viability loss – cell-based, non-viral oncogenic, luminescence, dose response (AID 1934); format: functional; conditions: Homo sapiens
[18] = biological target: T6, Mannose-6-phosphate isomerase (Homo sapiens, UniProt P34949); assay: MPI inhibition at elevated mannose 6-phosphate – biochemical, fluorescence intensity, high mannose 6-phosphate, primary screen (AID 1220)
T6 sequence (P34949 whole entry): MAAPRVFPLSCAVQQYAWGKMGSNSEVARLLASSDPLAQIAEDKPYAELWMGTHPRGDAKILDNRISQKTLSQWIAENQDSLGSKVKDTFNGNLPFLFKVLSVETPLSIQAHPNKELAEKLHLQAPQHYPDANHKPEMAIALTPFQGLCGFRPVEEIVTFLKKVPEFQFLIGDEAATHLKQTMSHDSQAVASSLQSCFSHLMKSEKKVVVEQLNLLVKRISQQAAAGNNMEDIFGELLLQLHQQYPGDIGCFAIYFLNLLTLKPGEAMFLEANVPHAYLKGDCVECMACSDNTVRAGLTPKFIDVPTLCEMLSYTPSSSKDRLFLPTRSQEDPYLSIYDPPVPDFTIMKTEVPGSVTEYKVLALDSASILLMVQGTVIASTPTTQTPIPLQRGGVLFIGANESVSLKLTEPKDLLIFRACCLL

[19] = biological target: DNA dC->dU-editing enzyme APOBEC-3A (Homo sapiens, UniProt P31941); assay: A3A deaminase inhibition for selectivity – biochemical, dose response (AID 504722); format: functional
[20] = biological target: DNA dC->dU-editing enzyme APOBEC-3G (Homo sapiens, UniProt Q9HC16); assay: Dose Response confirmation of small molecule APOBEC3G DNA Deaminase Inhibitors via a fluorescence-based single-stranded DNA deaminase assay. [Related pubchem assays (depositor defined):AID493012, AID493028]; format: functional
BJ [21] = assay: growth inhibition of engineered Ras-driven BJ cells – cell-based, alamar blue fluorescence, cherrypicked samples, dose response (AID 2631); format: functional; conditions: Homo sapiens;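 further: confirmatory dose-response assay in RAS-dependent BJ fibroblasts engineered with TERT, LT and ST, with cytotoxicity read by fluorescence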

Beta Lactamase, sequence (Q932Y6 whole entry): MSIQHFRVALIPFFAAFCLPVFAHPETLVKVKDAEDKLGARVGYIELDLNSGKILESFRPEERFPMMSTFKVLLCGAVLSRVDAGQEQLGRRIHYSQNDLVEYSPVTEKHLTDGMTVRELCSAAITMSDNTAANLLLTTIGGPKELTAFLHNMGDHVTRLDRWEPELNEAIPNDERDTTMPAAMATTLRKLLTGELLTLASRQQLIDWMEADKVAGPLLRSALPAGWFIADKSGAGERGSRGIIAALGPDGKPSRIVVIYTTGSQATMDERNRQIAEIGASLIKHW
Latent membrane protein 1, sequence (P03230 whole entry): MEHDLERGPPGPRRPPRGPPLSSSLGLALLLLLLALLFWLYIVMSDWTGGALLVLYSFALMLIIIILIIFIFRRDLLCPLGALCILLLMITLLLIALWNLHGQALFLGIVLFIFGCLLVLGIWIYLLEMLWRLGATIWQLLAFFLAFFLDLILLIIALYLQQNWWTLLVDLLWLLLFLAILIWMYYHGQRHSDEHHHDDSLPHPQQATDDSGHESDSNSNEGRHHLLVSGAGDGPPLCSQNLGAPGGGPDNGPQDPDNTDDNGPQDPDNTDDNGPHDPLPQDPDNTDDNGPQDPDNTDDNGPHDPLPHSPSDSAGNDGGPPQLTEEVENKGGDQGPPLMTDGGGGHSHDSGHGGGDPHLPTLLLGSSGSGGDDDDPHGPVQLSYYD
DNA dC->dU-editing enzyme APOBEC-3A, sequence (P31941 whole entry): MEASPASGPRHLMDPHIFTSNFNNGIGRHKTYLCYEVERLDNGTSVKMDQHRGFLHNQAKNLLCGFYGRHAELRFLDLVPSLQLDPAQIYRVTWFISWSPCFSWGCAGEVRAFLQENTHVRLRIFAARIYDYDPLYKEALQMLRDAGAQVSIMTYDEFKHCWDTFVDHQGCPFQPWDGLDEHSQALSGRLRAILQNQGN
DNA dC->dU-editing enzyme APOBEC-3G, sequence (Q9HC16 whole entry): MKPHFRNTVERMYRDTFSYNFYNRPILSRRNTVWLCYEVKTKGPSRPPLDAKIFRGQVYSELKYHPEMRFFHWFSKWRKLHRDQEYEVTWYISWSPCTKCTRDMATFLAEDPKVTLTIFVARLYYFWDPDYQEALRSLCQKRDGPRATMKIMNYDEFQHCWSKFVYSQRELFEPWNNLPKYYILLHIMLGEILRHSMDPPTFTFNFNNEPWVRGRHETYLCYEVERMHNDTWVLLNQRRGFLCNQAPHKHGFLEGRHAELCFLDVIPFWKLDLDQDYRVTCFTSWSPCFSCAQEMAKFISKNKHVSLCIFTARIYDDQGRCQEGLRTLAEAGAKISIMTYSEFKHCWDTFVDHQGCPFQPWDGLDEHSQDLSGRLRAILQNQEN
Cytochrome P450 3A4, sequence (P08684 whole entry, the tested form may be a part): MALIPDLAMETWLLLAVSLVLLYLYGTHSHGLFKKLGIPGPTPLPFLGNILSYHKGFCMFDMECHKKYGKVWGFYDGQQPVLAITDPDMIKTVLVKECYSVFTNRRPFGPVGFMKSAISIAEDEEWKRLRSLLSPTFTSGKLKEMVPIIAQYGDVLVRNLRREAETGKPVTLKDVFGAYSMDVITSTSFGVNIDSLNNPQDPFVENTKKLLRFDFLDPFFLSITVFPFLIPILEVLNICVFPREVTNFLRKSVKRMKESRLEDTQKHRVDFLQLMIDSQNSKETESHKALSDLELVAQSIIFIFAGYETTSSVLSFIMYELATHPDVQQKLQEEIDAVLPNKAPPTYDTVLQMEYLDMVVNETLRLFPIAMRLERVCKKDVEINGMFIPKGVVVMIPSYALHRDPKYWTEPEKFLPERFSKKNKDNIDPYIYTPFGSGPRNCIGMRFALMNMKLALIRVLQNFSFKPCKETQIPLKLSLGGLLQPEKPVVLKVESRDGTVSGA
Sphingosine 1-phosphate receptor 2, sequence (O95136 whole entry): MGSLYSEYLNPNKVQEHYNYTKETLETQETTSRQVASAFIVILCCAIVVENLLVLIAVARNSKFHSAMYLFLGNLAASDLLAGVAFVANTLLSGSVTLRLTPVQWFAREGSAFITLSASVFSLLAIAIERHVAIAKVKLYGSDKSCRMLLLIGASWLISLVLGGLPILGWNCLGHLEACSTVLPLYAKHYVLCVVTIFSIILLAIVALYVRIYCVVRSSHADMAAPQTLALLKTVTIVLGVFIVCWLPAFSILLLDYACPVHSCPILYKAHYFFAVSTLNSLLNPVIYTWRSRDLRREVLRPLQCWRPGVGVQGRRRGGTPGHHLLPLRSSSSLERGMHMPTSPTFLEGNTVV

COc1cccc(-c2nc(NCc3ccccc3)c3ccccc3n2)c1O
AC50 [1]: 91 µM (active)

CCC(C)Sc1ccc(-c2nc3cnccn3c2NC2CCCCC2)cc1 (stereo not given)
AC50 [2]: 3.63 µM (active) | IC50 (CHO): 21.4 µM (inactive) | IC50 (Beta Lactamase): 3.68 µM (active)

Cc1ccc(S(=O)(=O)NC(CC(C)C)C(=O)NCC(c2ccco2)N2CCCCC2)cc1 (stereo not given)
AC50 (HEK293 [3]): 1.8 µM (active) | AC50 [1]: 24.5 µM (active)

Cc1ccc(S(=O)(=O)N[C@H](C(=O)Oc2ccc3c(C(F)(F)F)cc(=O)oc3c2)c2ccccc2)cc1
IC50 (Protein Rev): 26.9 µM (not active) | IC50 [4]: 3.89 µM (active) | IC50 (CHO): > 49.7 µM (inactive) | IC50 (Beta Lactamase): 3.73 µM (active) | AC50 (Cytochrome P450 3A4): 25.1 µM (inconclusive)

Cc1ccc(NNC2=C3N=NN=C3C=CC2=O)cc1
EC50 [5]: 22.4 µM (active) | EC50 [6]: 0.399 µM (active) | EC50 [7]: 50.3 µM (active) | EC50 (H4): > 120 µM (not active) | EC50 [8]: 2.99 µM (active) | EC50 (Insulin-degrading enzyme [9]): 1.32 µM (active) | EC50 (Insulin-degrading enzyme [10]): 0.891 µM (active) | AC50 (INS1): 5.05 µM (active) | IC50 (HEK293 [11]): > 89.3 µM (inactive) | EC50 (HEK293 [12]): 0.659 µM (active)

CC1=C/C(=N\OS(=O)(=O)c2ccccc2)C=CC1=O
IC50 [13]: 5.98 µM (active) | EC50 (BJ [14]): 2.56 µM (active) | EC50 (BJ [15]): 3.33 µM (active) | EC50 (BJ [16]): 4.43 µM (inconclusive) | EC50 [17]: 6.19 µM (active) | IC50 [18]: 2.71 µM (active) | IC50 [19]: > 100 µM (inactive) | IC50 [20]: 7.43 µM (active) | EC50 (BJ [21]): 0.542 µM (inconclusive)
